Assay results taken from patent US6797861B2, “Seed shattering” (Bayer BioScience NV, priority 1995, dated 2004).

Experiments:
Assay type in all cases: in vivo, Brassica napus
[1] = tested on: pods (8% moisture) of oilseed rape cv Fido; assay: Cantilever bending test of pod opening force; conditions: plants sprayed
Protocol: (§1) Brassica napus cv Fido plants were grown in an unheated greenhouse. At 12 days after germination plants were transferred to, and further grown in, 1000 cm^3 compost. Pods were collected at one week intervals from two to eight weeks after anthesis. The pods were taken from the base of the terminal one of the first three axillary racemes. The pods were separated into dehiscence zone, pod wall and seeds.
In a further experiment ethylene production was inhibited by treating the pods with aminoethoxyvinylglycine (AVG), a competitive inhibitor of the enzyme ACC-synthase. AVG was applied 28 days after anthesis at 500 mg/l. […] Decreased endogenous ACC concentrations in both dehiscence zone and seeds of the treated pods correlated with the reduced ethylene production. […] A decrease in endogenous IAA content in the dehiscence zone preceding pod opening was also observed in these experiments both in control and in AVG-treated plants. […]
3) changes in the mechanical properties of the DZ and their seed shatter resistance by analysing the shatter resistance of individual pods. […] In yet another procedure, susceptibility to crack propagation is determined by friction measurement. In this case, the force generated due to friction between a wedge forced along the DZ is recorded and enables comparison of DZ tissues in selected, extreme examples of resistance.

[2] = tested on: pods of oilseed rape cv Fido; assay: Pod wall senescence and pod shatter tendency of treated plants; conditions: spray at 150 mg/l, 35 days after anthesis
Protocol: as §1
In a further experiment ethylene production was inhibited by treating the pods with aminoethoxyvinylglycine (AVG), a competitive inhibitor of the enzyme ACC-synthase. AVG was applied 28 days after anthesis at 500 mg/l. […] Decreased endogenous ACC concentrations in both dehiscence zone and seeds of the treated pods correlated with the reduced ethylene production. […] A decrease in endogenous IAA content in the dehiscence zone preceding pod opening was also observed in these experiments both in control and in AVG-treated plants.
(§2) To examine the auxin involvement in pod shattering, the synthetic auxin 4-chlorophenoxyacetic acid (4CPA) was used to manipulate auxin levels. 4CPA was applied 35 days after anthesis as a spray at 150 mg/l in order to artificially keep auxin concentration at a high level during the entire period. […] No effect was observed on the endogenous phytohormone concentrations.

[3] = tested on: endogenous ACC and IAA in pod tissues; assay: Endogenous phytohormone (ACC, IAA) concentrations in pod tissues; conditions: spray at 150 mg/l, 35 days after anthesis
Protocol: as §1
The samples were grinded with a mortar and pestle and then extracted for 16 hours at −20 C. in a total volume of 80% methanol. Purification and analysis of phytohormones was carried out essentially as described [Bialek and Cohen (1989), Plant Physiol. 90: 398; Prinsen et al. (1991), in: A Laboratory Guide for Cellular and Molecular Plant Biology. Ed. Negrutiu and Gharti-Chhetri. Birkhäuser Verlag, Basel/Boston/Berlin pp.175-185, pp.323-324; Chauvaux et al. (1993), J. Chromatogr. A 657: 337].
Different parts of the pods (pod wall, dehiscence zone and seeds) were screened for endogenous concentrations of the ethylene precursor 1-aminocyclopropane-1-carboxylic acid (ACC) and conjugates thereof as well as for indole-3-acetic acid (IAA) and conjugates thereof.
In a further experiment ethylene production was inhibited by treating the pods with aminoethoxyvinylglycine (AVG), a competitive inhibitor of the enzyme ACC-synthase. AVG was applied 28 days after anthesis at 500 mg/l. […]

Beta-Glucanase = assay: Beta-glucanase activity in the dehiscence zone; conditions: spray at 150 mg/l, 35 days after anthesis
Protocol: as §2

O=C(O)COc1ccc(Cl)cc1 [4CPA, 4-chlorophenoxyacetic acid]
Force needed to initiate crack (pod opening) [1]: 194.9 10^−3N | Force needed to propagate crack (pod opening) [1]: 222.6 10^−3N | delay of pod wall senescence [2]: about two | pod shatter tendency [2]: distinct retardation | effect on endogenous phytohormone concentrations [3]: No effect | Beta-Glucanase activity in the dehiscence zone (Beta-Glucanase): markedly decreased
